{"source": "patent US20240041951A1", "about": "“METHOD FOR IMPROVING PRODUCTIVITY IN LIVESTOCK AND/OR POULTRY AND METHOD FOR IMPROVING INTESTINAL FLORA IN LIVESTOCK AND/OR POULTRY” (Hayashibara Co., Ltd., priority 2020, published 2024)", "type_in_all_cases": "in vivo, male Chunky broiler chickens", "key": {"[1]": {"system": "Welch bacillus (Clostridium perfringens)", "conditions": "ileum content at 24 days old, average of stocking densities 11 and 14 individuals/m^2, * = significant vs control (p<0.05)"}, "[2]": {"system": "bacteria belonging to the genus Lactobacillus", "experiment": "Intestinal flora: number of Lactobacillus cells in ileum content of reared broiler chickens", "conditions": "ileum content at 24 days old"}, "[3]": {"experiment": "Rearing test: uniformity of body weight (coefficient of variation)", "conditions": "body weights of individual chickens at 42 days old; (standard deviation/average)×100"}, "[4]": {"experiment": "Rearing test: body weight, weight gain, feed intake and feed conversion ratio", "conditions": "for Feed conversion ratio: feed intake/weight gain"}, "[5]": {"conditions": "from 0 day old to 42 days old (entire rearing period)"}, "[6]": {"conditions": "from 0 day old to 42 days old (entire rearing period), listed as trehalose group"}, "[7]": {"conditions": "from 35 days old to 42 days old (finishing period)"}, "[8]": {"conditions": "from 35 days old to 42 days old (finishing period), listed as trehalose group"}}, "note": "Where two headings read alike, the source gives them in different places. Marks after values point to notes of the source that are not given here.", "data": [{"compound": "OC[C@H]1O[C@H](O[C@H]2O[C@H](CO)[C@@H](O)[C@H](O)[C@H]2O)[C@H](O)[C@@H](O)[C@@H]1O", "note": "[Trehalose group, α,α-trehalose]", "values": [{"measurement": "Number of microbial cells, Clostridium perfringens", "setting": "[1]", "result": "0.37 × 10^2* cells/g"}, {"measurement": "Number of microbial cells, Clostridium perfringens", "setting": "[1]; listed as trehalose group", "result": "0.37×10^2 cells/g"}, {"measurement": "Number of microbial cells, Lactobacillus spp.", "setting": "[2]", "result": "10.2 × 10^7 cells/g"}, {"measurement": "Number of microbial cells, Lactobacillus spp.", "setting": "[2]; listed as trehalose group", "result": "10.2×10^7 cells/g"}, {"measurement": "Coefficient of variation", "setting": "[3]", "result": 7.9, "unit": "%"}, {"measurement": "Average body weight", "setting": "[4]; 0 day old (start of rearing)", "result": 41, "unit": "g"}, {"measurement": "Average body weight", "setting": "[4]; 35 days old", "result": 2621, "unit": "g"}, {"measurement": "Average body weight", "setting": "[4]; 42 days old", "result": 3251, "unit": "g"}, {"measurement": "Feed intake", "setting": "[4]; from 0 day old to 35 days old", "result": 3458, "unit": "g"}, {"measurement": "Weight gain", "setting": "[4]; from 0 day old to 35 days old", "result": 2580, "unit": "g"}, {"measurement": "Feed conversion ratio", "setting": "[4]; from 0 day old to 35 days old", "result": 1.340}, {"measurement": "Feed intake", "setting": "[4]; [5]", "result": 4756, "unit": "g"}, {"measurement": "Weight gain", "setting": "[4]; [5]", "result": "3210* g"}, {"measurement": "Feed conversion ratio", "setting": "[4]; [5]", "result": "1.482*"}, {"measurement": "Feed conversion ratio", "setting": "[4]; [6]", "result": 1.482}, {"measurement": "Weight gain", "setting": "[4]; [6]", "result": 3210, "unit": "g"}, {"measurement": "Feed intake", "setting": "[4]; [7]", "result": 1320, "unit": "g"}, {"measurement": "Weight gain", "setting": "[4]; [7]", "result": "630* g"}, {"measurement": "Feed conversion ratio", "setting": "[4]; [7]", "result": "2.095*"}, {"measurement": "Feed conversion ratio", "setting": "[4]; [8]", "result": 2.095}, {"measurement": "Weight gain", "setting": "[4]; [8]", "result": 630, "unit": "g"}]}]}
